Experimental data as given in patent US9688645B2, “Macrocyclic urea and sulfamide derivatives as inhibitors of TAFIa” (SANOFI, priority 2008, dated 2017).

test system: not given; experiment: not given; conditions: from C=CCCCCCOC[C@@H](NC(=O)[C@@H](Cc1ccc(OCC=C)cc1)NC(=O)OCC1c2ccccc2-c2ccccc21)C(C)C; rcm bond; dichloro(o-isopropoxyphenylmethylene)(tricyclohexylphosphine)ruthenium (Hoveyda-Grubbs catalyst); dichloromethane; 3.5 mM; 40.0 °C; 24.0 h

Structure (SMILES)	ring closure, yield of all isomers [%]
CC(C)[C@H]1COCCCCCC=CCOc2ccc(cc2)C[C@@H](NC(=O)OCC2c3ccccc3-c3ccccc32)C(=O)N1	90.4

same assay, conditions: from C=CCOC[C@@H](NC(=O)[C@@H](Cc1ccc(OCC=C)cc1)NC(=O)OCC1c2ccccc2-c2ccccc21)C(C)C; rcm bond; dichloro(o-isopropoxyphenylmethylene)(tricyclohexylphosphine)ruthenium (Hoveyda-Grubbs catalyst); dichloromethane; 3.61 mM; 40.0 °C; 24.0 h

Structure (SMILES)	ring closure, yield of all isomers [%]
CC(C)[C@H]1COCC=CCOc2ccc(cc2)C[C@@H](NC(=O)OCC2c3ccccc3-c3ccccc32)C(=O)N1	86.6

same assay, conditions: from C=CCOC[C@@H](NC(=O)[C@@H](Cc1cn(CC=C)cn1)NC(=O)OCc1ccccc1)C(C)C; rcm bond; benzylidene[1,3-bis(2,4,6-trimethylphenyl)-2-imidazolidinylidene]dichloro(tricyclohexylphosphine)ruthenium (Grubbs II catalyst); dichloromethane; 4.38 mM; 25.0 °C

Structure (SMILES)	ring closure, yield of all isomers [%]
CC(C)[C@H]1COCC=CCn2cnc(c2)C[C@@H](NC(=O)OCc2ccccc2)C(=O)N1	73.3

biological target: TAFIa (Homo sapiens (Human), UniProt Q96IY4); experiment: TAFIa inhibition, Actichrome plasma TAFI Activity Kit (American Diagnostica); format: biochemical; conditions: chromogenic read-out at 420 nm, 15 min preincubation at room temperature, pH 7.4, duplicate determination
Experimental: The prepared substances were tested for TAFIa inhibition using the Actichrome plasma TAFI Activity Kit from American Diagnostica (Pr. No. 874). This entailed adding 28 μl of assay buffer (20 mM Hepes, 150 mM NaCl, pH 7.4) and 10 μl of TAFIa (American Diagnostica Pr. No. 874TAFIA; 2.5 μg/ml) to 2 μl of 2.5 mM DMSO solution of the substance and incubating in a 96 half-well microtiter plate at room temperature for 15 minutes. The enzyme reaction was started by adding 10 μl of TAFIa developer (prediluted 1:2 with assay buffer). The time course of the reaction was followed at 420 nm in a microtiter plate reader (SpectraMax plus 384; Molecular Devices) for 15 minutes.
The IC50 values were calculated from the averaged values (duplicate determination) of serial dilutions of the substance with the aid of the Softmax Pro software (version 4.8; Molecular Devices).

Sequence of TAFIa (Q96IY4 115-423): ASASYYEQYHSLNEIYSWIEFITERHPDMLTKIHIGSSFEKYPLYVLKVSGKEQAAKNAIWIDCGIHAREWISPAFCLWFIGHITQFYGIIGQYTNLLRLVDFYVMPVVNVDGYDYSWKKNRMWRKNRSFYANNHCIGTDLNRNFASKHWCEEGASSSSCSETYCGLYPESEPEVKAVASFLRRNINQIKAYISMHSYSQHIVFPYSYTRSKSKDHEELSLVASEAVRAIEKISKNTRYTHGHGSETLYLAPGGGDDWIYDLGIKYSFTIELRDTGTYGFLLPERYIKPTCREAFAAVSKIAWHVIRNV

IC50 [nM]	Structure (SMILES)
6	CC(C)[C@H]1COCCCCOc2ccc(cc2)C[C@@H](NC(=O)N[C@@H](CCCCN)C(=O)O)C(=O)N1 [Example 1-1, (S)-6-Amino-2-[3-((9S,12R)-9-isopropyl-11-oxo-2,7-dioxa-10-azabicyclo[12.2.2]octadeca-1(17),14(18),15-trien-12-yl)ureido]hexanoic acid]
9040	NCCCC[C@H](NC(=O)N[C@@H]1Cc2ccc(cc2)OCCCCOCCNC1=O)C(=O)O [Example 1-2, (S)-6-Amino-2-[3-((R)-11-oxo-2,7-dioxa-10-azabicyclo[12.2.2]octadeca-1(17),14(18),15-trien12-yl)ureido]hexanoic acid]
269	CC1(C)COCCCCOc2ccc(cc2)C[C@@H](NC(=O)N[C@@H](CCCCN)C(=O)O)C(=O)N1 [Example 1-3, (S)-6-Amino-2-[3-((R)-9,9-dimethyl-11-oxo-2,7-dioxa-10-azabicyclo[12.2.2]octadeca-1(17),14(18),15-trien-12-yl)ureido]hexanoic acid]
71	NCCCC[C@H](NC(=O)N[C@@H]1Cc2ccc(cc2)OCCCCOC[C@H](c2ccccc2)NC1=O)C(=O)O [Example 1-4, (S)-6-Amino-2-[3-((9S,12R)-11-oxo-9-phenyl-2,7-dioxa-10-azabicyclo[12.2.2]octadeca-1(17),14(18),15-trien-12-yl)ureido]hexanoic acid]
105	NCCCC[C@H](NC(=O)N[C@@H]1Cc2ccc(cc2)OCCCCOC[C@H](Cc2ccccc2)NC1=O)C(=O)O [Example 1-5, (S)-6-Amino-2-[3-((9S,12R)-9-benzyl-11-oxo-2,7-dioxa-10-azabicyclo[12.2.2]octadeca-1(17),14(18),15-trien-12-yl)ureido]hexanoic acid]
811	NCCCC[C@H](NC(=O)N[C@@H]1Cc2ccc(cc2)OCCCCOC[C@H](C2CCCCC2)NC1=O)C(=O)O [Example 1-6, (S)-6-Amino-2-[3-((9S,12R)-9-cyclohexyl-11-oxo-2,7-dioxa-10-azabicyclo[12.2.2]octadeca-1(17),14(18),15-trien-12-yl)ureido]hexanoic acid]
49	CC[C@H]1COCCCCOc2ccc(cc2)C[C@@H](NC(=O)N[C@@H](CCCCN)C(=O)O)C(=O)N1 [Example 1-7, (S)-6-Amino-2-[3-((9S,12R)-9-ethyl-11-oxo-2,7-dioxa-10-azabicyclo[12.2.2]octadeca-1(17),14(18),15-trien-12-yl)ureido]hexanoic acid]
29	C[C@H]1COCCCCOc2ccc(cc2)C[C@@H](NC(=O)N[C@@H](CCCCN)C(=O)O)C(=O)N1 [Example 1-8, (S)-6-Amino-2-[3-((9S,12R)-9-methyl-11-oxo-2,7-dioxa-10-azabicyclo[12.2.2]octadeca-1(17),14(18),15-trien-12-yl)ureido]hexanoic acid]
19	CC(C)(C)[C@H]1COCCCCOc2ccc(cc2)C[C@@H](NC(=O)N[C@@H](CCCCN)C(=O)O)C(=O)N1 [Example 1-9, (S)-6-Amino-2-[3-((9S,12R)-9-tert-butyl-11-oxo-2,7-dioxa-10-azabicyclo[12.2.2]octadeca-1(17),14(18),15-trien-12-yl)ureido]hexanoic acid]
8.8	CC(C)[C@H]1COCCCCCCCCOc2ccc(cc2)C[C@@H](NC(=O)N[C@@H](CCCCN)C(=O)O)C(=O)N1 [Example 2-1, (S)-6-Amino-2-[3-((13S,16R)-13-isopropyl-15-oxo-2,11-dioxa-14-azabicyclo[16.2.2]docosa-1(21), 18(22), 19-trien-16-yl)ureido]hexanoic acid]
7.7	CC(C)[C@H]1COC/C=C/COc2ccc(cc2)C[C@@H](NC(=O)N[C@@H](CCCCN)C(=O)O)C(=O)N1 [Example 3-1, (S)-6-Amino-2-[3-((E)-(9S,12R)-9-isopropyl-11-oxo-2,7-dioxa-10-azabicyclo[12.2.2]octadeca-1(17),4,14(18), 15-tetraen-12-yl)ureido]hexanoic acid]
17	CC(C)[C@H]1COCCCCCCCC[C@@H](NC(=O)N[C@@H](CCCCN)C(=O)O)C(=O)N1 [Example 4-1, (S)-6-Amino-2-[3-((3S,6R)-3-isopropyl-5-oxo-1-oxa-4-azacyclotetradec-6-yl)ureido]hexanoic acid]
649	CC(C)[C@H]1COCCCCOc2ccc(cc2)C[C@@H](NC(=O)N[C@@H](CS(=O)(=O)CCN)C(=O)O)C(=O)N1 [Example 5-1, (R)-3-(2-Aminoethanesulfonyl)-2-[3-((9S,12R)-9-isopropyl-11-oxo-2,7-dioxa-10-azabicyclo[12.2.2]octadeca-1(17),14(18), 15-trien-12-yl)ureido]propionic acid]
9	CC(C)[C@H]1COCCCCOc2ccc(cc2)C[C@@H](NC(=O)N[C@@H](Cc2ccc(N)nc2)C(=O)O)C(=O)N1 [Example 5-2, (S)-3-(6-Aminopyridin-3-yl)-2-[3-((9S,12R)-9-isopropyl-11-oxo-2,7-dioxa-10-azabicyclo[12.2.2]octadeca-1(17),14(18), 15-trien-12-yl)ureido]propionic acid]
32	Nc1ccc(C[C@H](NC(=O)N[C@@H]2Cc3ccc(cc3)OCCCCOC[C@H](C3CC3)NC2=O)C(=O)O)cn1 [Example 5-3, (S)-3-(6-Aminopyridin-3-yl)-2-[3-((9S,12R)-9-cyclopropyl-11-oxo-2,7-dioxa-10-azabicyclo[12.2.2]octadeca-1(17),14(18), 15-trien-12-yl)ureido]propionic acid]
52	CC(C)[C@H]1COCCCCn2cnc(c2)C[C@@H](NC(=O)N[C@@H](Cc2ccc(N)nc2)C(=O)O)C(=O)N1 [Example 6-1, (S)-3-(6-Aminopyridin-3-yl)-2-[3-((8S,11R)-8-isopropyl-10-oxo-6-oxa-1,9,14-triazabicyclo[11.2.1]hexadeca-13(16),14-dien-11-yl)ureido]propionic acid]
21	CC(C)[C@H]1COCCCCc2ccc(cc2)C[C@@H](NC(=O)N[C@@H](Cc2ccc(N)nc2)C(=O)O)C(=O)N1 [Example 6-2, (S)-3-(6-Aminopyridin-3-yl)-2-[3-((3R,6S)-6-isopropyl-4-oxo-8-oxa-5-azabicyclo[11.2.2]heptadeca-1(16),13(17), 14-trien-3-yl)ureido]propionic acid]
12	CC(C)[C@H]1COCCCCOc2ccc(cc2F)C[C@@H](NC(=O)N[C@@H](Cc2ccc(N)nc2)C(=O)O)C(=O)N1 [Example 6-3, (S)-3-(6-Aminopyridin-3-yl)-2-[3-((9S,12R)-16-fluoro-9-isopropyl-11-oxo-2,7-dioxa-10-azabicyclo[12.2.2]octadeca-1(17),14(18), 15-trien-12-yl)ureido]propionic acid]
55	CC(C)[C@H]1COCCCCOC[C@@H](NC(=O)N[C@@H](Cc2ccc(N)nc2)C(=O)O)C(=O)N1 [Example 6-4, (S)-3-(6-Aminopyridin-3-yl)-2-[3-((3S,6R)-3-isopropyl-5-oxo-1,8-dioxa-4-azacyclododec-6-yl)ureido]propionic acid]
22	CC(C)[C@H]1COCCC(=O)Nc2ccc(cc2)C[C@@H](NC(=O)N[C@@H](CCCCN)C(=O)O)C(=O)N1 [Example 7-1, (S)-6-Amino-2-[3-((8S,11R)-8-isopropyl-3,10-dioxo-6-oxa-2,9-diazabicyclo[11.2.2]heptadeca-1(16),13(17),14-trien-11-yl)ureido]hexanoic acid]
40	CC(C)[C@H]1COCCNC(=O)c2ccc(cc2)C[C@@H](NC(=O)N[C@@H](Cc2ccc(N)nc2)C(=O)O)C(=O)N1 [Example 7-4, (S)-3-(6-Aminopyridin-3-yl)-2-[3-((8S,11R)-8-isopropyl-2,10-dioxo-6-oxa-3,9-diazabicyclo[11.2.2]heptadeca-1(16),13(17), 14-trien-11-yl)ureido]propionic acid]
23	CC(C)[C@H]1COCC(O)C(O)COc2ccc(cc2)C[C@@H](NC(=O)N[C@@H](CCCCN)C(=O)O)C(=O)N1 (stereo partly drawn) [Example 8-1, (S)-6-Amino-2-[3-((9S,12R)-4,5-dihydroxy-9-isopropyl-11-oxo-2,7-dioxa-10-azabicyclo[12.2.2]octadeca-1(17),14(18),15-trien-12-yl)ureido]hexanoic acid]
59	CC(C)[C@H]1COCC(O)C(O)COc2ccc(cc2)C[C@@H](NC(=O)NC(Cc2ccc(N)nc2)C(=O)O)C(=O)N1 (stereo partly drawn) [Example 8-3, 3-(6-Aminopyridin-3-yl)-2-[3-((9S,12R)-4,5-dihydroxy-9-isopropyl-11-oxo-2,7-dioxa-10-azabicyclo[12.2.2]octadeca-1(17),14(18), 15-trien-12-yl)ureido]propionic acid]
